# Results as given in paper PMC10065276, “Enhanced therapeutic window for antimicrobial Pept-ins by investigating their structure-activity relationship” (PLOS ONE, 2023).
# Positions of bridges follow the written chain, without caps; N, C: chain ends. Residues, ends and D or L forms follow the SMILES beside them.
# What was measured:
# E. coli BL21 = details: BL21, 17 h
# Summary of the method: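 EUCAST broth microdilution in Mueller-Hinton medium; end-exponential culture diluted to 0.005 McF (~1.5x10^6 CFU/mL) before 1:1 mixing with two-fold peptide dilutions (0.75 to 100 μg/mL), triplicates.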
# [1] = tested on: E. coli XL1-Red (ancestor strain); type: cell-based; details: XL1-Red (ancestor strain, 17 h)
# Procedure: In a previous study, we generated a P2-resistant strain by subculturing the hypermutable E. coli XL1-Red, which has a 5 000-fold higher mutation rate than wildtype bacteria, at the sub-MIC concentration of P2 for 27 days. […] The MIC of a few categories of P2 variants were determined to investigate whether P2 antimicrobial activity can be restored against P2-resistant bacteria via structure modification. […] The amount of intracellularly accumulated P2_VFV in P2-resistant strains was much higher than P2 (Fig 5A), which was sufficient to induce cell death (FAM^+Draq7^+ cells) (Fig 5B). […] (Fig 5C).
# The peptide MIC was determined via the broth microdilution assay according to the EUCAST guideline, using 96-well polystyrene flat-bottom microtiter plates (BD Biosciences). Briefly, a single colony was inoculated in 5 mL Mueller-Hinton (MH) medium and incubated, while shaking at 37°C, to the end-exponential growth phase. The bacterial culture was subsequently diluted to 0.005 McFarland (McF) (~1.5x10^6 CFU/mL) with fresh MH medium. Two-fold serial peptide-dilutions were prepared in 50 μL MH medium resulting in a concentration range of 0.75 to 100 μg/mL (at least three wells for each concentration). […] The MIC was determined as the lowest peptide concentration without visible bacterial growth.
# [2] = tested on: E. coli ATCC clinical isolates; assay: microbe, parasite or virus in culture; type: cell-based; details: ATCC clinical isolates, 17 h
# Excerpt: To address the emerging antibiotic resistance issue, it is not only required to develop active antibiotics against wildtype bacteria, but also against the clinically isolated multidrug-resistant strains. Therefore, we determined whether P2 variants with a 4-fold lower MICs (P2_A5F, V7Y (P2), P2_H12_GV, P2_H12_PEG) (S12 Table) will also show improved antimicrobial activity against these multidrug-resistant strains. Since a high net positive charge could carry inherent developability challenges, we further explored the therapeutic potential of P2 variants with reduced net charge (P2_4R_GV and P2_4R_L) (S12 Table) by determining their antimicrobial activity against these clinically isolated multidrug-resistant strains. The mode of action of these derivatives remains to be inducing protein aggregation in bacteria as shown by the formation of IBs stained by pFTAA after Pept-in treatment (P2, P2-4R-GV, P2_A5F, V7Y (P2), P2_H12_GV, P2_H12_PEG) (S6A Fig) and the presence of a large number of proteins with different molecular weights in purified IBs as shown by the Coomassie staining (S6B Fig), in contrast to the absence of pFTAA staining (S6A Fig) and the presence of only two faint protein bands (S6B Fig) for buffer and control peptide treated bacteria. For clinically isolated multidrug-resistant strains, in addition to the 34 clinical isolates of E. coli ATCC, we added 12 Acinetobacter baumannii (A. baumannii) isolates and 12 Klebsiella pneumoniae (K. pneumoniae) isolates to broaden the selection of the bacterial spectrum.
# The peptide MIC was determined via the broth microdilution assay according to the EUCAST guideline, using 96-well polystyrene flat-bottom microtiter plates (BD Biosciences). Briefly, a single colony was inoculated in 5 mL Mueller-Hinton (MH) medium and incubated, while shaking at 37°C, to the end-exponential growth phase. The bacterial culture was subsequently diluted to 0.005 McFarland (McF) (~1.5x10^6 CFU/mL) with fresh MH medium. […] The MIC was determined as the lowest peptide concentration without visible bacterial growth.
# [3] = tested on: K. pneumoniae clinical isolates; type: cell-based, Klebsiella pneumoniae; details: 17 h
# Excerpt: To address the emerging antibiotic resistance issue, it is not only required to develop active antibiotics against wildtype bacteria, but also against the clinically isolated multidrug-resistant strains. Therefore, we determined whether P2 variants with a 4-fold lower MICs (P2_A5F, V7Y (P2), P2_H12_GV, P2_H12_PEG) (S12 Table) will also show improved antimicrobial activity against these multidrug-resistant strains. Since a high net positive charge could carry inherent developability challenges, we further explored the therapeutic potential of P2 variants with reduced net charge (P2_4R_GV and P2_4R_L) (S12 Table) by determining their antimicrobial activity against these clinically isolated multidrug-resistant strains. […]
# The peptide MIC was determined via the broth microdilution assay according to the EUCAST guideline, using 96-well polystyrene flat-bottom microtiter plates (BD Biosciences). […] The MIC was determined as the lowest peptide concentration without visible bacterial growth.
SMILES,"BL21 MIC, SS bond (E. coli BL21) [µg/mL]","BL21 MIC, no SS bond (E. coli BL21) [µg/mL]","MIC, Ancestor [1] [µg/mL]",BL21 MIC (E. coli BL21) [µg/mL],MIC [2] [µg/mL],MIC [3] [µg/mL]
CC(C)C[C@@H]1NC(=O)CNC(=O)[C@H](CCCNC(=N)N)NC(=O)[C@H](C(C)C)NC(=O)[C@H](CCCNC(=N)N)NC(=O)[C@H](CCCNC(=N)N)NC(=O)[C@H](C(C)C)NC(=O)[C@H](CC(C)C)NC(=O)[C@H](C)NC(=O)[C@H](CC(C)C)NC(=O)CNC(=O)[C@H](CC(C)C)NC(=O)[C@@H](NC(=O)[C@@H](N)CCCNC(=N)N)CSSC[C@@H](C(=O)O)NC(=O)[C@H](CO)NC(=O)CNC(=O)[C@H](CCCNC(=N)N)NC(=O)[C@H](CCCNC(=N)N)NC(=O)[C@H](CC(C)C)NC(=O)[C@H](C)NC(=O)[C@H](CC(C)C)NC(=O)CNC1=O [Peptide P2_H6] (H-RCLGLALVRRVRGLGLALRRGSC-OH; disulfide 2-23),6.25,12.5,3.13,–,–,–
CC(C)C[C@H](NC(=O)CNC(=O)[C@H](CCCNC(=N)N)NC(=O)[C@@H]1CSSC[C@H](NC(=O)[C@@H](NC(=O)[C@H](CC(C)C)NC(=O)[C@H](C)NC(=O)[C@H](CC(C)C)NC(=O)CNC(=O)[C@H](CC(C)C)NC(=O)CNC(=O)[C@@H](N)CCCNC(=N)N)C(C)C)C(=O)N[C@@H](CCCNC(=N)N)C(=O)N[C@@H](CCCNC(=N)N)C(=O)NCC(=O)N[C@@H](C(C)C)C(=O)N1)C(=O)NCC(=O)N[C@@H](CC(C)C)C(=O)N[C@@H](C)C(=O)N[C@@H](CC(C)C)C(=O)N[C@H](C(=O)N[C@@H](CCCNC(=N)N)C(=O)N[C@@H](CCCNC(=N)N)C(=O)O)C(C)C [Peptide P2_H12_GV] (H-RGLGLALVCRRGVCRGLGLALVRR-OH; disulfide 9-14),3.13,6.25,3.13,3.13,–,–
CC(C)C[C@H](NC(=O)CNC(=O)[C@H](CCCNC(=N)N)NC(=O)[C@@H]1CCCN1C(=O)[C@H](CCCNC(=N)N)NC(=O)[C@H](CCCNC(=N)N)NC(=O)[C@H](Cc1ccc(O)cc1)NC(=O)[C@H](CC(C)C)NC(=O)[C@H](C)NC(=O)[C@H](CC(C)C)NC(=O)CNC(=O)[C@H](CC(C)C)NC(=O)CNC(=O)[C@@H](N)CCCNC(=N)N)C(=O)NCC(=O)N[C@@H](CC(C)C)C(=O)N[C@@H](C)C(=O)N[C@@H](CC(C)C)C(=O)N[C@@H](Cc1ccc(O)cc1)C(=O)N[C@@H](CCCNC(=N)N)C(=O)N[C@@H](CCCNC(=N)N)C(=O)O [V7Y (P2)] (H-RGLGLALYRRPRGLGLALYRR-OH),–,–,–,3.13,8,8
